Read-outs that look alike come from different tables or passages of the source.
Columns and labels:
[1] = target: T1, human FXR (NR1H4) (Homo sapiens, UniProt Q96RI1); assay: Human FXR (NR1H4) agonist assessment, FXRE-NanoLuc reporter in HEK293T cells; assay type: cell-based
T1 sequence (Q96RI1 1-476 isoform Q96RI1-1): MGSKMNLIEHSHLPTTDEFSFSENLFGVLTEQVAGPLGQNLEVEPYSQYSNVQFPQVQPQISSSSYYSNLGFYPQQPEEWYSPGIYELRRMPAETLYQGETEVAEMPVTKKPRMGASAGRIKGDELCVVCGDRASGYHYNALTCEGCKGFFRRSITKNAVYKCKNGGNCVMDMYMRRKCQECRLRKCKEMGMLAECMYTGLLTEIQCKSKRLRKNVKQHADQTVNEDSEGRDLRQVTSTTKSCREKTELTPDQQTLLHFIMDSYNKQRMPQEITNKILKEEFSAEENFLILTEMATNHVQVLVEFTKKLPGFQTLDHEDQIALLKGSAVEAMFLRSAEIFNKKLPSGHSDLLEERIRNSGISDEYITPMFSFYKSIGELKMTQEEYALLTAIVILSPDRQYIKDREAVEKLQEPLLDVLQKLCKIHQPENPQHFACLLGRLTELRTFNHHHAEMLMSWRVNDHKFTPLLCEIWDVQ
Method in brief: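 Read-out was NanoLuc luminescence in culture medium, measured 5 min after adding coelenterazine. Cells were HEK293T stably carrying human FXR and an FXRE reporter, exposed to compound for 24 hr at 37 °C. Vehicle was 0.01% DMSO. EC50 was obtained from sigmoid fits of gradient dilutions.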

[2] = target: MRGPRX4 (Homo sapiens, UniProt Q96LA9); assay: MRGPRX4 activation, Fluo-8 Ca2+ FLIPR assay in HEK293T cells stably expressing MRGPRX4; assay type: cell-based; parameters: key to MRGPRX4 activation, Average / MRGPRX4 activation, Ave.: fluorescence change dF/F0
Method in brief: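 Response measured as dF/F0: 30 s baseline, then 150 s after compound addition on FLIPR Tetra, in HHBS after 40-60 min room-temperature loading with 2 μM Fluo-8 AM.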

[3] = FXR activation, HEK293T FXRE-NanoLuc reporter, 24 hr
[4] = FXR activation, HEK293T FXRE-NanoLuc reporter, 24 hr, read-out: EC50
[5] = MRGPRX4 activation, Ca2+ fluorescence, no activation in tested range reported as III, read-out: Activity (EC50 μM)

Sequence of MRGPRX4 (Q96LA9 whole entry): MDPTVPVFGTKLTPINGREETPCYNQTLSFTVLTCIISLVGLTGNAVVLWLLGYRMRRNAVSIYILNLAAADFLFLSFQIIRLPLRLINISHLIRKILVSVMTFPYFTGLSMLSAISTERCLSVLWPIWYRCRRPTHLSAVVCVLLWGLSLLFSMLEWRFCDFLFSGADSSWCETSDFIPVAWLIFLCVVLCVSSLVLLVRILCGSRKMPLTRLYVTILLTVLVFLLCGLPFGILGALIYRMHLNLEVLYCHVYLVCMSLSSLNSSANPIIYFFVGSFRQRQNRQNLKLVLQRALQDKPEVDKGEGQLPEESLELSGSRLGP

| Compound | Efficacy (maximum measured induction of NanoLuc, normalized to CDCA set as 100%) [1, 3] | EC50 [1, 4] [nM] | MRGPRX4 activation, Average ([2]; E3-9, Conc. (Log[M]) −4.0) | MRGPRX4 activation, Average ([2]; E3-9, Conc. (Log[M]) −4.5) | MRGPRX4 activation, Average ([2]; E3-9, Conc. (Log[M]) −5.0) | MRGPRX4 activation, Average ([2]; E3-9, Conc. (Log[M]) −5.4) | MRGPRX4 activation, Average ([2]; E3-9, Conc. (Log[M]) −5.9) | MRGPRX4 activation, Average ([2]; E3-9, Conc. (Log[M]) −6.4) | MRGPRX4 activation, Average ([2]; E3-9, Conc. (Log[M]) −6.9) | MRGPRX4 activation, Average ([2]; E3-9, Conc. (Log[M]) −7.3) | MRGPRX4 activation, Average ([2]; E3-9, Conc. (Log[M]) −7.8) | MRGPRX4 activation, Average ([2]; E3-9, Conc. (Log[M]) −8.3) | EC50 [2, 5] [µM] | Activation (%) ([2]; second E3-8-1, 4.6 nM, n = 1) | Activation (%) ([2]; second E3-8-1, 4.6 nM, n = 2) | Activation (%) ([2]; second E3-8-1, 14 nM, n = 1) | Activation (%) ([2]; second E3-8-1, 14 nM, n = 2) | Activation (%) ([2]; second E3-8-1, 41 nM, n = 1) | Activation (%) ([2]; second E3-8-1, 41 nM, n = 2) | Activation (%) ([2]; second E3-8-1, 123 nM, n = 1) | further results |
| --- | --- | --- | --- | --- | --- | --- | --- | --- | --- | --- | --- | --- | --- | --- | --- | --- | --- | --- | --- | --- | --- |
| [2H]C1CC[C@@]2(C)[C@@H](C1)[C@@H](CC)[C@@H](O)[C@@H]1[C@@H]2CC[C@]2(C)[C@@H]([C@H](C)CCC(=O)O)CC[C@@H]12 (stereo partly shown) [13-1] | C (100%<efficacy <=300%) | < 1000 | 0.104 | −0.009 | 0.013 | 0.013 | 0.018 | 0.015 | 0.018 | 0.013 | 0.010 | 0.013 | > 100 |  |  |  |  |  |  |  |  |
| [2H]C1CC[C@@]2(C)[C@@H](C1)[C@@H](CC)[C@@H](O)[C@@H]1[C@@H]2CC[C@]2(C)[C@@H]([C@H](C)CCNC(=O)NS(=O)(=O)c3ccc(C(C)(C)CF)cc3)CC[C@@H]12 (stereo partly shown) [13-2] | A (efficacy >400%) | < 1000 |  |  |  |  |  |  |  |  |  |  | > 100 |  |  |  |  |  |  |  | MRGPRX4 activation, Ave. ([2]; E3-7, Conc. (Log[M]) −4): −0.054; MRGPRX4 activation, Ave. ([2]; E3-7, Conc. (Log[M]) −4.5): −0.054; MRGPRX4 activation, Ave. ([2]; E3-7, Conc. (Log[M]) −5): −0.027; MRGPRX4 activation, Ave. ([2]; E3-7, Conc. (Log[M]) −5.5): −0.027; MRGPRX4 activation, Ave. ([2]; E3-7, Conc. (Log[M]) −6): −0.027; MRGPRX4 activation, Ave. ([2]; E3-7, Conc. (Log[M]) −7): 0.000 |
| [2H]C1([2H])CC[C@@]2(C)[C@@H](C1)[C@@H](CC)[C@@H](O)[C@@H]1[C@@H]2CC[C@]2(C)[C@@H]([C@H](C)CCN=C=S)CC[C@@H]12 [14-2] | C (100%<efficacy <=300%) |  | 0.090 | 0.027 | 0.027 | 0.030 | 0.020 | 0.013 | 0.013 | 0.013 | 0.010 | 0.010 |  |  |  |  |  |  |  |  | EC50 [1]: > 10000 nM; EC50 [2]: > 100 µM |
| [2H]C1([2H])CC[C@@]2(C)[C@@H](C1)[C@@H](CC)[C@@H](O)[C@@H]1[C@@H]2CC[C@]2(C)[C@@H]([C@H](C)CCNC(=S)NS(=O)(=O)c3cccs3)CC[C@@H]12 [14-4] |  | < 1000 | 0.061 | 0.020 | 0.013 | 0.018 | 0.013 | 0.020 | 0.015 | 0.015 | 0.008 | 0.015 | > 100 |  |  |  |  |  |  |  | Efficacy (maximum measured induction of NanoLuc, normalized to CDCA set as 100%) [1]: C (key: A: efficacy >400%; B: 300%<efficacy <=400%; C: 100%<efficacy <=300%; D: efficacy <=100%) |
| CC[C@H]1[C@@H](O)[C@@H]2[C@H](CC[C@]3(C)[C@@H]([C@H](C)COC(=O)NS(=O)(=O)c4ccc(C(C)(C)CF)cc4)CC[C@@H]23)[C@@]2(C)CCCC[C@@H]12 [18-1] | A (efficacy >400%) | < 1000 | 0.168 | 0.003 | 0.008 | 0.019 | 0.018 |  |  |  |  |  | > 100 | 3.17 | 2.86 | 2.86 | 3.17 | 2.55 | 3.48 | 2.55 | Activation (%) ([2]; second E3-8-1, 123 nM, n = 2): 3.17%; Activation (%) ([2]; second E3-8-1, 370 nM, n = 1): 3.17%; Activation (%) ([2]; second E3-8-1, 370 nM, n = 2): 3.48%; Activation (%) ([2]; second E3-8-1, 1111 nM, n = 1): 2.86%; Activation (%) ([2]; second E3-8-1, 1111 nM, n = 2): 2.86%; Activation (%) ([2]; second E3-8-1, 3333 nM, n = 1): 1.93%; Activation (%) ([2]; second E3-8-1, 3333 nM, n = 2): 2.55%; Activation (%) ([2]; second E3-8-1, 10000 nM, n = 1): 2.86%; Activation (%) ([2]; second E3-8-1, 10000 nM, n = 2): 3.79%; Activation (%) ([2]; second E3-8-1, 30000 nM, n = 1): 2.24%; Activation (%) ([2]; second E3-8-1, 30000 nM, n = 2): 2.24% |
| CC[C@H]1[C@@H](O)[C@@H]2[C@H](CC[C@]3(C)[C@@H]([C@H](C)COC(=O)NS(=O)(=O)c4ccc5c(c4)CCC(C)(C)O5)CC[C@@H]23)[C@@]2(C)CCCC[C@@H]12 [18-2] | A (efficacy >400%) | < 1000 |  |  |  |  |  |  |  |  |  |  | > 100 | 2.86 | 3.17 | 3.79 | 3.79 | 3.17 | 1.93 | 3.48 | Activation (%) ([2]; second E3-8-1, 123 nM, n = 2): 2.86%; Activation (%) ([2]; second E3-8-1, 370 nM, n = 1): 3.48%; Activation (%) ([2]; second E3-8-1, 370 nM, n = 2): 3.48%; Activation (%) ([2]; second E3-8-1, 1111 nM, n = 1): 2.24%; Activation (%) ([2]; second E3-8-1, 1111 nM, n = 2): 2.55%; Activation (%) ([2]; second E3-8-1, 3333 nM, n = 1): 3.17%; Activation (%) ([2]; second E3-8-1, 3333 nM, n = 2): 1.93%; Activation (%) ([2]; second E3-8-1, 10000 nM, n = 1): 3.48%; Activation (%) ([2]; second E3-8-1, 10000 nM, n = 2): 2.24%; Activation (%) ([2]; second E3-8-1, 30000 nM, n = 1): 4.10%; Activation (%) ([2]; second E3-8-1, 30000 nM, n = 2): 3.48% |
| CC[C@H]1[C@@H](O)[C@@H]2[C@H](CC[C@]3(C)[C@@H]([C@H](C)COC(=O)NS(=O)(=O)c4ccc(N5CCCCC5)nc4)CC[C@@H]23)[C@@]2(C)CCCC[C@@H]12 [18-3] | A (efficacy >400%) | < 1000 | 0.519 | 0.027 | 0.021 | 0.018 | 0.018 |  |  |  |  |  | > 100 | 3.17 | 2.86 | 2.86 | 2.55 | 2.86 | 2.55 | 2.86 | Activation (%) ([2]; second E3-8-1, 123 nM, n = 2): 2.86%; Activation (%) ([2]; second E3-8-1, 370 nM, n = 1): 2.24%; Activation (%) ([2]; second E3-8-1, 370 nM, n = 2): 3.48%; Activation (%) ([2]; second E3-8-1, 1111 nM, n = 1): 2.55%; Activation (%) ([2]; second E3-8-1, 1111 nM, n = 2): 2.24%; Activation (%) ([2]; second E3-8-1, 3333 nM, n = 1): 3.17%; Activation (%) ([2]; second E3-8-1, 3333 nM, n = 2): 2.24%; Activation (%) ([2]; second E3-8-1, 10000 nM, n = 1): 2.24%; Activation (%) ([2]; second E3-8-1, 10000 nM, n = 2): 2.86%; Activation (%) ([2]; second E3-8-1, 30000 nM, n = 1): 1.63%; Activation (%) ([2]; second E3-8-1, 30000 nM, n = 2): 0.08% |
